# Source: publication PMC12508159 (NPJ Biofilms and Microbiomes, 2025)
# Legend:
# [1] = target: T1, serine-rich adhesin for platelets (SraP), L-lectin module (SLL) (Staphylococcus aureus, UniProt Q8NUJ3); test: SPR; assay type: binding
# [2] = target: T1, serine-rich adhesin for platelets (SraP), L-lectin module (SLL); test: SPR; assay type: binding; remark: listed apart in the source
# T1 sequence (Q8NUJ3 245-480): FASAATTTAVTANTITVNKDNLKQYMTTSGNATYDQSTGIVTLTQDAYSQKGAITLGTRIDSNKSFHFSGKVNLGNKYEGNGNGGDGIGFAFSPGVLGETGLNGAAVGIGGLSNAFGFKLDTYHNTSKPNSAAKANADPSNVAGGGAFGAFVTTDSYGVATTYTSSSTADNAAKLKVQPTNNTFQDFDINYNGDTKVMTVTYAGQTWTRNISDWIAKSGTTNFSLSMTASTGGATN
SMILES,"SPR (Biacore T200), dose-dependent [1]",Kd [2]
C[C@@H]1O[C@@H](O[C@H]2[C@H](Oc3cc(O)c4c(c3)O[C@H](c3ccc(O)c(O)c3)CC4=O)O[C@H](CO)[C@@H](O)[C@@H]2O)[C@H](O)[C@H](O)[C@H]1O [neoeriocitrin],"EGCG, neoeriocitrin, and isoviolanthin, were verified to possess strong binding signals in a dose-dependent manner",
"O=C1O[C@H]2[C@@H]3OC(=O)c4cc(O)c(O)c(O)c4-c4c(O)c(O)c5oc(=O)c6c(c(O)c(O)c7oc(=O)c4c5c76)-c4c(cc(O)c(O)c4O)C(=O)OC[C@H]3OC(O)[C@@H]2OC(=O)c2cc(O)c(O)c(O)c2-c2c1cc(O)c(O)c2O (mixture of isomers) [PA, punicalagin]",,566 nM
COc1cc(-c2oc3cc(O)cc(O)c3c(=O)c2O[C@@H]2O[C@H](CO[C@@H]3O[C@@H](C)[C@H](O)[C@@H](O)[C@H]3O)[C@@H](O)[C@H](O)[C@H]2O)ccc1O [isorhamnetin-3-O-β-rutinoside],"isorhamnetin-3-O-β-rutinoside, EGCG, neoeriocitrin, and isoviolanthin, were verified to possess strong binding signals in a dose-dependent manner",
